Earlier results on 1 substance are cited in PubChem BioAssay AID1259409 (Chemical Carcinogenesis Research Information System (CCRIS), 2018).

The data set relates to rodent chemically induced tumor inhibition, incidence and multiplicity. Briefly: CCRIS tumor inhibitor studies. Conditions: Carcinogen: N-BUTYL-N-(4-HYDROXYBUTYL)NITROSAMINE, 3817-11-6, Dose [Inhibitor]: 0, Route [Inhibitor]: INTRAMUSCULAR, Target Tissue: Type of Lesion: BLADDER: CARCINOMA, Promoter: NONE USED.

Consider Ac-SDAAVDTSSEITTKDLKEKKEVVEEAEN-OH, for which the “tumour outcome (control, treated, inhibition, significance)” value is 6/11 (55%), 5/12 (42%), 24%, not significant (0.3 UG IN 100 µL SALINE INJECTED INTO RIGHT THIGH 2/WK FOR 20 WK (STUDY DURATION: 20 WK), Species: MOUSE, Strain/Sex: C3H/HEJ/FEMALE, Dose [Carcinogen]: 0.05% (W/V) SOLUTION IN DRINKING WATER WITH 0.001% (W/V) TWEEN 80 FOR 20 WK); 9/16 (56%), 9/16 (56%), 0%, not significant (0.3 UG IN 100 µL SALINE INJECTED INTO RIGHT THIGH 2/WK FOR 25 WK (STUDY DURATION: 25 WK), Species: MOUSE, Strain/Sex: C3H/HEJ/FEMALE, Dose [Carcinogen]: 0.05% (W/V) SOLUTION IN DRINKING WATER WITH 0.001% (W/V) TWEEN 80 FOR 25 WK); 9/11 (82%), 6/11 (55%), 33%, not significant (6 UG IN 100 µL SALINE INJECTED INTO RIGHT THIGH 2/WK FOR 30 WK (STUDY DURATION: 30 WK), Species: RAT, Strain/Sex: WISTAR/FEMALE, Dose [Carcinogen]: 0.025% (W/V) SOLUTION IN DRINKING WATER WITH 0.0005% (W/V) TWEEN 80 FOR 30 WK).
